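Values below derive from 48-hour exposures of cells grown in 96-well plates, with endpoints linearly interpolated between the two concentrations bracketing the appropriate inhibition level. TGI: concentration producing complete growth inhibition.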 Where a SMILES comes first, the peptide text is derived from it. Side-chain parts run from the residue outwards. The star is where a group is joined. Cbz = O=C(OCc1ccccc1)*; Boc = CC(C)(C)OC(=O)*
Tests used:
Assay in all cases: DTP human tumour cell line panel, 48 h
OVCAR-8 ovarian = system: OVCAR-8 ovarian
HCC-2998 colon = system: HCC-2998 colon
SF-539 CNS = system: SF-539 CNS
A498 renal = system: A498 renal
OVCAR-3 ovarian = system: OVCAR-3 ovarian
T-47D breast = system: T-47D breast
SNB-19 CNS = system: SNB-19 CNS
ACHN renal = system: ACHN renal
OVCAR-5 ovarian = system: OVCAR-5 ovarian
CAKI-1 renal = system: CAKI-1 renal

SMILES	TGI (OVCAR-8 ovarian) [µM]	TGI (HCC-2998 colon) [µM]	TGI (SF-539 CNS) [µM]	TGI (A498 renal) [µM]	TGI (OVCAR-3 ovarian) [µM]	TGI (T-47D breast) [µM]	TGI (SNB-19 CNS) [µM]	TGI (ACHN renal) [µM]	TGI (OVCAR-5 ovarian) [µM]	TGI (CAKI-1 renal) [µM]
COc1ccc(Cn2c3ccc([N+](=O)[O-])cc3c(=O)n2Cc2ccccn2)cc1	> 100	> 100	> 100	> 100	> 100	77.4	> 100	> 100	> 100	> 100
CC1(C)CN=CC(C)(OCc2ccccc2)C(=O)NC(C)(C)CN=CC(C)(OCc2ccccc2)C(=O)N1 (stereo unspecified)	> 10	> 10	> 10	> 10	> 10	> 10	> 10	> 10	> 10	
CC(=O)c1ccc2c3c1O[C@H]1c4[nH]c5ccccc5c4C[C@@]4(O)[C@@H](C2)N(CC2CC2)CC[C@]314	27.8		29.3	16.1	23.4	44	20.8	30.9	28.1	37.4
CCN(CC)C1Oc2cc3c(cc2C(c2cccc(OC)c2O)C1C)OCO3 (stereo unspecified)	> 80.8	> 46.7	6.3	7.24	5.5	> 86	31.4	40.4	48.5	27
N#Cc1c(N2CCCC2)nsc1Nc1ccc(F)cc1	> 100	> 100	> 100	> 100	> 100	> 100	> 100	> 100	> 100	> 100
CC(=O)OCC1OC(n2c(N)c(C#N)c(-c3cccc(Cl)c3)c(C#N)c2=S)C(OC(C)=O)C(OC(C)=O)C1OC(C)=O (stereo unspecified)	39.9	22.7	27.7	45.5	58	59	> 100	> 100	> 100	> 100
COc1ccc(C2C(C#N)=C(S)N(C3OC(CO)C(O)C(O)C3O)C(C)=C2C(C)=O)cc1 (stereo unspecified)	> 100	> 100	> 100	> 100	> 100	97.1	> 100	> 100	> 100	
NC1=Nc2ccccc2Sc2nc3ccccc3n21			> 100		> 100	> 100	> 100	> 100	> 100	
Cc1ccc2c(=O)cc(Cc3csc4ccccc34)[nH]c2n1	> 100			> 100	> 100	73.2	> 100		> 100	> 100
O=C(CC(c1ccccc1)C(C(=O)c1ccncc1)C(CC(=O)c1ccncc1)c1ccccc1)c1ccncc1 (stereo unspecified)	> 100	> 100		> 100	> 100	> 100	> 100	> 100	> 100	> 100
O=C(CSCC(=O)N/N=C\c1ccccc1F)N/N=C\c1ccccc1F	> 100	> 100	> 100	> 100	> 100	> 100	> 100	> 100		> 100
CC(C)(C)OC(=O)NC(CCCCNC(=O)CNC(=O)OCc1ccccc1)C(=O)NC(CCCCNC(=O)CNC(=O)OCc1ccccc1)C(=O)NC(CCCCNC(=O)CNC(=O)OCc1ccccc1)C(=O)NC(CCCCNC(=O)CNC(=O)OCc1ccccc1)C(=O)O (stereo unspecified) (Boc-K([Gly-Cbz])K([Gly-Cbz])K([Gly-Cbz])K([Gly-Cbz])-OH; configuration not given here)	> 100	> 100			> 100	> 100	> 100	> 100	> 100	> 100
O=C(Nc1ccc(Sc2ccc(N=Nc3c(O)c(S(=O)(=O)O)cc4cc(S(=O)(=O)O)ccc34)cc2)cc1)c1ccc(N=Nc2c(O)c(S(=O)(=O)O)cc3cc(S(=O)(=O)O)ccc23)cc1	> 100	> 100	> 100	> 100	54.9		> 100	> 100	> 100	> 100
C[N+]1([O-])[C@H]2CC(OC(=O)[C@H](CO)c3ccccc3)C[C@H]1[C@H]1O[C@H]12 (stereo partly specified)	> 100		> 100	> 100	> 100	> 100	> 100	> 100	> 100	> 100
CC1C(C#N)(C#N)C(C#N)=C(N)C1(C)[N+](=O)[O-] (stereo unspecified)	> 100	> 100	> 100	> 100	> 100		> 100	> 100	> 100	> 100
CCN(CC)c1ccc2cc(C(N)=O)c(=Nc3ccc(F)cc3)oc2c1	> 100	> 100		> 100	> 100	> 100	> 100	> 100	> 100	> 100
O=C1CC(C(COCc2ccccc2)OCc2ccccc2)CC(=O)N1 (stereo unspecified)	> 100	> 100	> 100		> 100	> 100	> 100	> 100	> 100	> 100
CCOC1NC(/N=C/c2ccc(OC)cc2)=C(C#N)C1C#N (stereo unspecified)	> 100	> 100	> 100	> 100	> 100		> 100	> 100	> 100	> 100
CC1=NN(C(=O)Cc2ccccc2)C(=O)/C1=C\c1ccccc1O	> 100	> 100	> 100	> 100	> 100		> 100	> 100	> 100	> 100
OC(C1CCCCCCCCCC1)C(O)C1CCCCCCCCCC1 (stereo unspecified)	> 100	> 100	> 100		> 100	> 100	> 100	> 100	> 100	> 100
Cc1c2cccc-2c(OCCOC(=O)n2ccnc2)cc2c1[nH]c1ccccc12	5.22	12.1		21	4.64	8.15	5.97	7.27	7.51	17.8
COc1cc(S(=O)(=O)Nc2ccc(-c3csc(N4C(=O)C(C)SC4c4ccccc4)n3)cc2)ccc1Cl (stereo unspecified)	> 100		> 100	> 100	> 100	54.2	> 100	> 100	> 100	> 100

Source: PubChem BioAssay (NCI)
